Reference: US12492188B2, “1H-benzo[D]imidazole derivatives as TLR9 inhibitors for the treatment of fibrosis” (BRISTOL-MYERS SQUIBB COMPANY, priority 2020, dated 2025)
pIC50: −log10 of the molar value. Read-outs that look alike come from different tables or passages of the source.

Biological target: T1, human TLR9 (Homo sapiens, UniProt Q9NR96)
T1 construct: host or cells: HEK-Blue cells (HEK293-derived reporter line)
T1 sequence (Q9NR96 26-1032): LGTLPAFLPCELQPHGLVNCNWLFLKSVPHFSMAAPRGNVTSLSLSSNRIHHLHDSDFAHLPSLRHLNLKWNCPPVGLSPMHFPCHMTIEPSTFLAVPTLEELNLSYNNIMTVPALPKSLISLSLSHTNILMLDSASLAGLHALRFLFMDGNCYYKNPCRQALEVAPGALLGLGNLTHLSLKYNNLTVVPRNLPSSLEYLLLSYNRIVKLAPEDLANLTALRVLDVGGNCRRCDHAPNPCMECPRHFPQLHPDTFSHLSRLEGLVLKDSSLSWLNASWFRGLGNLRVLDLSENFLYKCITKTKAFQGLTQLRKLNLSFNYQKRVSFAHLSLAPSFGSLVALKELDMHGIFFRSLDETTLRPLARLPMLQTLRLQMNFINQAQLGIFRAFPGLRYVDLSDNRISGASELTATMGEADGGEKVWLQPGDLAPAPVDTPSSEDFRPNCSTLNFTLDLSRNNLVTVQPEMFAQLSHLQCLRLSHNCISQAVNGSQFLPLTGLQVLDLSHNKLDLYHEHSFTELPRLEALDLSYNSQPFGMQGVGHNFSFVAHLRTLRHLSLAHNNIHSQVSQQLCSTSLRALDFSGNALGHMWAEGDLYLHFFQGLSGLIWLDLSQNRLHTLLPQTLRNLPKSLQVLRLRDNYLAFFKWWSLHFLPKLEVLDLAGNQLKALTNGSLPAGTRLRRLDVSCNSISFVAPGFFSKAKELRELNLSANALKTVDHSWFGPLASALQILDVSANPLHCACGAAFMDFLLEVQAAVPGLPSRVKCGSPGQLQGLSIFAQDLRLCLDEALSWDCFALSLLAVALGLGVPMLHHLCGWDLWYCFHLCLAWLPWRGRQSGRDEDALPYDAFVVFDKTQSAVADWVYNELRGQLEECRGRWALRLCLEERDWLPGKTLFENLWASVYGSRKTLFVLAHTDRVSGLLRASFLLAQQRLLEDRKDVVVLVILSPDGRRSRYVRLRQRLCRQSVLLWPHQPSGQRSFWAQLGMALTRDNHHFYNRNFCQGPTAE
Assay: TLR9 inhibition reporter assay (HEK-Blue cells, secreted embryonic alkaline phosphatase reporter)
Type: cell-based
Experimental: TLR7/8/9 Inhibition Reporter Assays
HEK-Blue™-cells (Invivogen) overexpressing human TLR7, TLR8 or TLR9 receptors were used for screening inhibitors of these receptors using an inducible SLAP (secreted embryonic alkaline phosphatase) reporter gene under the control of the […] minimal promoter fused to five NF-κB and AP-1-binding sites. Briefly, cells are seeded into Greiner 384 well plates (15000 cells per well for TLR7, 20,000 for TLR8 and 25,000 for TLR9) and then treated with test compounds in DMSO to yield a final dose response concentration range of 0.05 nM-50 μM. After a 30 minute compound pre-treatment at room temperature, the cells are then stimulated with a TLR7 ligand (gardiquimod at a final concentration of 7.5 μM), TLR8 ligand (R848 at a final concentration of 15.9 μM) or TLR9 ligand (ODN2006 at a final concentration of 5 nM) to activate NF-κB and AP-1 which induce the production of SLAP. After a 22 hour incubation at 37° C., […], SLAP levels are determined with the addition of HEK-Blue™ Detection reagent (Invivogen), a cell culture medium that allows for detection of SLAP, according to manufacturer's specifications. The percent inhibition is determined as the […] in the HEK-Blue signal present in wells treated with agonist plus DMSO alone compared to wells treated with a known inhibitor.

[1] = HEK-Blue cells overexpressing human TLR9, stimulated with ODN2006 5 nM, 22 hour incubation, reporter readout
[2] = HEK-Blue cells overexpressing human TLR9, stimulated with ODN2006 5 nM, read-out: TLR 9 IC50

SMILES	pIC50 [1]	pIC50 [2]	pIC50
Cc1cc(C2CCN(C3CCN(CC(C)C)CC3)CC2)cc2[nH]c(-c3cccc(OC(F)F)c3)nc12 [Example 76, 2-(3-(difluoromethoxy)phenyl)-6-(1′-isobutyl-[1,4′-bipiperidin]-4-yl)-4-methyl-1H-benzo[d]imidazole]	6.59	6.59	–
Cc1cc(C2CCN(C3CCN(CC(C)C)CC3)CC2)cc2[nH]c(-c3cccc4ncsc34)nc12 [Example 77, 7-(6-(1′-isobutyl-[1,4′-bipiperidin]-4-yl)-4-methyl-1H-benzo[d]imidazol-2-yl)benzo[d]thiazole]	7.51	7.51	–
Cc1cc(C2CCN(C3CCN(CC(C)C)CC3)CC2)cc2[nH]c(-c3ccc(OC(F)F)cc3)nc12 [Example 78, 2-(4-(difluoromethoxy)phenyl)-6-(1′-isobutyl-[1,4′-bipiperidin]-4-yl)-4-methyl-1H-benzo[d]imidazole]	6.57	6.57	–
Cc1cc(C2CCN(C3CCN(CC(C)C)CC3)CC2)cc2[nH]c(-c3nccs3)nc12 [Example 79, 2-(6-(1′-isobutyl-[1,4′-bipiperidin]-4-yl)-4-methyl-1H-benzo[d]imidazol-2-yl)thiazole]	6.96	6.95	–
Cc1cc(C2CCN(C3CCN(CC(C)C)CC3)CC2)cc2[nH]c(-c3ccccc3OC(F)(F)F)nc12 [Example 80, 6-(1′-isobutyl-[1,4′-bipiperidin]-4-yl)-4-methyl-2-(2-(trifluoromethoxy)phenyl)-1H-benzo[d]imidazole tris(2,2,2-trifluoroacetate)]	6.44	6.45	–
Cc1cc(C2CCN(C3CCN(CC(C)C)CC3)CC2)cc2[nH]c(-c3cnc4[nH]ccc4c3)nc12 [Example 81, 6-(1′-isobutyl-[1,4′-bipiperidin]-4-yl)-4-methyl-2-(1H-pyrrolo[2,3-b]pyridin-5-yl)-1H-benzo[d]imidazole]	7.31	7.31	–
Cc1cc(C2CCN(C3CCN(CC(C)C)CC3)CC2)cc2[nH]c(-c3cccc4cccnc34)nc12 [Example 82, 8-(6-(1′-isobutyl-[1,4′-bipiperidin]-4-yl)-4-methyl-1H-benzo[d]imidazol-2-yl)quinoline]	7.49	7.49	–
COc1ccc(-c2nc3c(F)cc(C4CCN(C5CCN(C(C)C)CC5)CC4)cc3[nH]2)cc1OC [Example 83, 2-(3,4-dimethoxyphenyl)-4-fluoro-6-(1′-isopropyl-[1,4′-bipiperidin]-4-yl)-1H-benzo[d]imidazole]	6.68	–	–
Cc1c(C2CCN(C3CCN(C(C)C)CC3)CC2)ccc2nc(-c3ccc(S(C)(=O)=O)cc3)n(C)c12 [Example 119, 6-(1′-isopropyl-[1,4′-bipiperidin]-4-yl)-1,7-dimethyl-2-(4-(methylsulfonyl)phenyl)-1H-benzo[d]imidazole]	5.96	5.96	–
Cc1cc2nc(-c3ccc(S(C)(=O)=O)cc3)n(C)c2cc1C1CCN(C2CCN(C(C)C)CC2)CC1 [Example 120, 6-(1′-isopropyl-[1,4′-bipiperidin]-4-yl)-1,5-dimethyl-2-(4-(methylsulfonyl)phenyl)-1H-benzo[d]imidazole]	6.74	6.75	–
COc1ccc(-c2nc3c(F)cc(C4CCN(C5CCN(CC(C)C)CC5)CC4)cc3[nH]2)cc1OC [Example 127, 2-(3,4-dimethoxyphenyl)-4-fluoro-6-(1′-isobutyl-[1,4′-bipiperidin]-4-yl)-1H-benzo[d]imidazole]	–	7.51	7.51
COc1ccc(-c2nc3c(F)cc(C4CCN(C5CCN(C6CC6)CC5)CC4)cc3[nH]2)cc1OC [Example 128, 6-(1′-cyclopropyl-[1,4′-bipiperidin]-4-yl)-2-(3,4-dimethoxyphenyl)-4-fluoro-1H-benzo[d]imidazole]	–	6.57	6.57
COc1ccc(-c2nc3cc(F)c(C4CCN(C5CCN(C(C)C)CC5)CC4)cc3[nH]2)cc1OC [Example 129, 2-(3,4-dimethoxyphenyl)-5-fluoro-6-(1′-isopropyl-[1,4′-bipiperidin]-4-yl)-1H-benzo[d]imidazole]	–	6.73	6.72
COc1ccc(-c2nc3cc(F)c(C4CCN(C5CCN(CC(C)C)CC5)CC4)cc3[nH]2)cc1OC [Example 130, 2-(3,4-dimethoxyphenyl)-5-fluoro-6-(1′-isobutyl-[1,4′-bipiperidin]-4-yl)-1H-benzo[d]imidazole]	–	7.66	7.66
COc1ccc(-c2nc3cc(F)c(C4CCN(C5CCN(C6CC6)CC5)CC4)cc3[nH]2)cc1OC [Example 131, 6-(1′-cyclopropyl-[1,4′-bipiperidin]-4-yl)-2-(3,4-dimethoxyphenyl)-5-fluoro-1H-benzo[d]imidazole]	–	7.23	7.23
COc1ccc(-c2nc3ccc(C4CCN(C5CCN(C(C)C)CC5)CC4)c(F)c3[nH]2)cc1OC [Example 132, 2-(3,4-dimethoxyphenyl)-7-fluoro-6-(1′-isopropyl-[1,4′-bipiperidin]-4-yl)-1H-benzo[d]imidazole]	–	6.69	6.70
COc1ccc(-c2nc3ccc(C4CCN(C5CCN(CC(C)C)CC5)CC4)c(F)c3[nH]2)cc1OC [Example 133, 2-(3,4-dimethoxyphenyl)-7-fluoro-6-(1′-isobutyl-[1,4′-bipiperidin]-4-yl)-1H-benzo[d]imidazole]	–	5.66	5.66
Cc1cc(C2CCN(C3CCCN(C(C)C)CC3)CC2)cc2c1nc(-c1ccc(S(C)(=O)=O)cc1)n2C (stereo not drawn) [Example 134, 6-(1-(1-isopropylazepan-4-yl)piperidin-4-yl)-1,4-dimethyl-2-(4-(methylsulfonyl)phenyl)-1H-benzo[d]imidazole]	–	7.70	7.68
Cc1cc(C2CCN(C3CCCN(C4CCC4)CC3)CC2)cc2c1nc(-c1ccc(S(C)(=O)=O)cc1)n2C (stereo not drawn) [Example 135, 6-(1-(1-cyclobutylazepan-4-yl)piperidin-4-yl)-1,4-dimethyl-2-(4-(methylsulfonyl)phenyl)-1H-benzo[d]imidazole]	–	7.64	7.64
Cc1cc(C2CCN(C3CCCN(CC(C)C)CC3)CC2)cc2c1nc(-c1ccc(S(C)(=O)=O)cc1)n2C (stereo not drawn) [Example 136, 6-(1-(1-isobutylazepan-4-yl)piperidin-4-yl)-1,4-dimethyl-2-(4-(methylsulfonyl)phenyl)-1H-benzo[d]imidazole]	–	6.87	6.85
Cc1cc(C2CCN(C3CCCN(CC4CC4)CC3)CC2)cc2c1nc(-c1ccc(S(C)(=O)=O)cc1)n2C (stereo not drawn) [Example 137, 6-(1-(1-(cyclopropylmethyl)azepan-4-yl)piperidin-4-yl)-1,4-dimethyl-2-(4-(methylsulfonyl)phenyl)-1H-benzo[d]imidazole]	–	7.72	7.72
Cc1cc(C2CCN(C3CCCN(CC4CCC4)CC3)CC2)cc2c1nc(-c1ccc(S(C)(=O)=O)cc1)n2C (stereo not drawn) [Example 138, 6-(1-(1-(cyclobutylmethyl)azepan-4-yl)piperidin-4-yl)-1,4-dimethyl-2-(4-(methylsulfonyl)phenyl)-1H-benzo[d]imidazole]	–	7.21	7.21
Cc1cc(C2CCN(C3CC4(C3)CN(C(C)C)C4)CC2)cc2c1nc(-c1ccc(S(C)(=O)=O)cc1)n2C [Example 139, 6-(1-(2-isopropyl-2-azaspiro[3.3]heptan-6-yl)piperidin-4-yl)-1,4-dimethyl-2-(4-(methylsulfonyl)phenyl)-1H-benzo[d]imidazole]	–	6.68	6.68
